{"source": "patent US11629192B2", "about": "“Methods and pharmaceutical compositions for the treatment of diseases mediated by the NRP-1/OBR complex signaling pathway” (INSERM (Institut National de la Sante et de la Recherche …, priority 2014, dated 2023)", "key": {"NRP-1": {"target": "NRP-1 (Homo sapiens, UniProt O14786)", "assay": "Direct binding of Leptin to NRP-1 by HTRF and confocal microscopy", "description": "NRP-1 has been reported to bind directly VEGF increasing thus the binding affinity of VEGF to its receptor VEGFR2 […] and Sema3A enabling thus its binding to Plexin 3A. Our study led us to highlight a new mechanism of NRP-1 function. […] NRP-1 repression by siNRP-1 decreased the BRET signal and OBR oligomerization."}, "MDA-MB-231 cells": {"tested_on": "MDA-MB-231 cells", "assay": "MDA-MB-231 cell migration / transmigration through insert", "assay_type": "cell-based, human", "description": "FIG. 5. NRP-1, OBR and leptin interactions confirmation using a Bio-Layer Interferometry (BLI) technology (fortebio.com/bli-technology.html): A-Leptin (OB) interaction to OBR is used as a positive control. Human neuropilin-1 (hNRP-1) interact with human OBR with a high affinity and specifically with human leptin (hOB) but not with murine leptin (mOB). VEGF165 binding to hNRP-1 is used as a positive control. B-Leptin and Avastin association increases MDA-MB231 cells transmigration through […] pore Insert. Avastin treatment may prevent a negative feedback control by VEGF of the pro-angiogenic signaling pathway of Leptin. VEGF binds to OBR which confirms our hypothesis that should be more investigated.\n(§1) First MBA-MB-231 and T47D breast cancer cells line were selected for their high and undetectable NRP-1 expression respectively and the expression of Leptin receptor (OBR). In order to investigate NRP-1 and Leptin association in breast cancer cell line migration, we proceeded to NRP-1 expression silencing in MDA-MB-231 using either siRNA or shRNA approaches or NRP-1 overexpression in T47D. […] In contrast Leptin induced MDA-MB-231 migration that was decreased in siNRP-1 conditions. The in vitro data were confirmed in vivo by MDA-MB-231 and T47D xenografts in Nude mice. Modulation of NRP-1 expression either by shRNA silencing in MDA-MB-231 or by overexpression in T47D induced an increase of proliferation and a decrease of lymph node infiltration by MDA-MB-231-shNRP-1 and a decrease of proliferation and an increase of lymph node infiltration by T47D-NRP-1-RFP in mice treated with Leptin.\nLeptin induced in vitro MDA-MB-231 migration that was decreased by NRP-1 repression using siRNA. Lel Xu et al have reported a direct evidence of NRP-1 up-regulation in tumors treated by anti-VEGF (Bevacizumab). […] This observation can be a first explanation of breast cancer therapy failure (increase of Progression survival while decreasing overall survival) by Bevacizumad and that was revoked by the FDA (Food and Drugs Administration, US)."}, "[1]": {"tested_on": "OBR and STAT3 phosphorylation", "assay": "OBR and STAT3 phosphorylation in cytoplasmic and nuclear fractions", "assay_type": "cell-based", "conditions": "Leptin stimulation", "description": "Since both NRP-1/OBR complex formation and NRP-1 phosphorylation were abolished by CK2 inhibition, we supposed that OBR signaling pathway could be also affected by CK2 inhibition."}, "[2]": {"tested_on": "MDA-MB-231 and T47D-NRP-1", "assay": "In vitro cell proliferation (MTT, (H3)-thymidine, BrdU incorporation)", "assay_type": "cell-based, human", "conditions": "Leptin stimulation", "description": "as §1\nThis observation can lead to conclude that NRP-1 induces tumor growth independently of Leptin/OBR pathway and that NRP-1/OBR complex signaling is in a favor of cell movement and migration induction. The implication of Leptin in tumor growth and metastasis has already been studied but the published data are contradictory depending on cancer cell type and model studies. […] In our case, in vitro leptin implication in cell growth has been evaluated by different methods. […]"}, "P-NRP-1": {"tested_on": "P-NRP-1", "assay": "NRP-1 (P-NRP-1) and OBR phosphorylation in MDA-MB-231, immunostaining / coimmunoprecipitation", "assay_type": "cell-based, human", "conditions": "MDA-MB-231 serum starved, Leptin (10 nM)", "description": "Beside the modulation of the NRP-1/OBR complex formation by Leptin and OBR phosphorylation, we postulated a possible phosphorylation of NRP-1 that can regulate the translocation of the complex to the nucleus. Two putative phosphorylation sites of NRP-1 have been reported with no more investigation. The first one at the extracellular B domain as reported by Shintani et al in 2009 with no antibody available and the second one at the Threonine 916 located in the cytoplasmic domain as it was reported by Kyle et al in 2011. Since a specific antibody against P-NRP-1 at the T916 was available, we investigated by coimmunoprecipitation the detection of P-NRP-1 in MDA-MB-231 after serum starvation and stimulation by Leptin (10 nM). […] To confirm this phosphorylation state, we investigated the possible implication of a Serine/threonine Kinase CK2 using one of its first chemical inhibitor (DRB). In serum starved condition, P-NRP-1 was detected as polarized spot in the cytoplasm and the nucleus of MDA-MB-231. […] The inhibition was specific since, in stimulated condition combined with DMSO at the same dilution of DRB, we were able to observe a diffuse nuclear P-NRP-1 staining."}}, "note": "“Also recorded” adds a separate entry of the source."}
{"substance": "Leptin: small non glycosylated protein, ligand of OBR", "values": [{"measurement": "direct binding to NRP-1", "setting": "NRP-1", "result": "unable to bind directly"}, {"measurement": "MDA-MB-231 migration induced by Bevacizumab, effect of Leptin", "setting": "MDA-MB-231 cells; 10 μg/ml of Bevacizumab plus Leptin", "result": "increased"}, {"measurement": "MDA-MB-231 migration", "setting": "MDA-MB-231 cells; in vitro, Leptin alone", "result": "increased; also recorded: induced"}, {"measurement": "OBR and STAT3 phosphorylation", "setting": "[1]", "result": "increase"}, {"measurement": "cell proliferation", "setting": "[2]", "result": "decreased; also recorded: unable to observe; also recorded: not able to observe a significant increase"}, {"measurement": "NRP-1 phosphorylation (T916)", "setting": "P-NRP-1", "result": "phosphorylated"}]}
